ChEMBL document CHEMBL1201862, “PubChem BioAssay data set” (2004)
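These data come from cells grown in 96-well plates and exposed to compound for 48 hours at five concentrations. GI50 is the concentration that inhibits growth by half.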 Activity calls are given as the source filed them. Cut-off read from the data, not from the text of the source: active = GI50 up to about 1.1 µM and inactive = higher.

Key:
Test in all cases: NCI-60 cell line screen, 48 h
SK-OV-3 = test system: SK-OV-3
MOLT-4 = test system: MOLT-4
UACC-62 = test system: UACC-62
SF-539 = test system: SF-539
SNB-19 = test system: SNB-19
DMS-114 = test system: DMS-114
HCC 2998 = test system: HCC 2998
DMS-273 = test system: DMS-273
HL-60 = test system: HL-60
SF-295 = test system: SF-295
CAKI-1 = test system: CAKI-1
SK-MEL-2 = test system: SK-MEL-2
HCT-116 = test system: HCT-116
K562 = test system: K562
SNB-75 = test system: SNB-75
OVCAR-4 = test system: OVCAR-4
PC-3 = test system: PC-3
MDA-MB-435 = test system: MDA-MB-435
NCI/ADR-RES = test system: NCI/ADR-RES
HOP-18 = test system: HOP-18

| SMILES | GI50 (SK-OV-3) | GI50 (MOLT-4) | GI50 (UACC-62) | GI50 (SF-539) | GI50 (SNB-19) | GI50 (DMS-114) | GI50 (HCC 2998) | GI50 (DMS-273) | GI50 (HL-60) | GI50 (SF-295) | GI50 (CAKI-1) | GI50 (SK-MEL-2) | GI50 (HCT-116) | GI50 (K562) | GI50 (SNB-75) | GI50 (OVCAR-4) | GI50 (PC-3) | GI50 (MDA-MB-435) | GI50 (NCI/ADR-RES) | GI50 (HOP-18) |
| --- | --- | --- | --- | --- | --- | --- | --- | --- | --- | --- | --- | --- | --- | --- | --- | --- | --- | --- | --- | --- |
| CCCCc1c2c(nc3c1CCc1cc4c(nc1-3)-c1nc3c(c(CCCC)c1CC4)CCC/C3=C\c1ccccc1)/C(=C/c1ccccc1)CCC2 | 36.2 µM (inactive) | > 100 µM (inactive) | 97.3 µM (inactive) | 33.5 µM (inactive) | 35.9 µM (inactive) | 47.5 µM (inactive) | 88.3 µM (inactive) | 35.2 µM (inactive) | 62.1 µM (inactive) | 78.9 µM (inactive) | 29.1 µM (inactive) | 35.2 µM (inactive) | 65.3 µM (inactive) | > 100 µM (inactive) | – | – | – | – | – | – |
| CC(=O)OC1=C2CC[C@@H]3C(CC[C@@]4(C)C3CC[C@@H]4OC(C)=O)[C@@]2(C)CC(C#N)C1=O (some centres not stated) | 18.3 µM (inactive) | 23.4 µM (inactive) | 12.8 µM (inactive) | 30.3 µM (inactive) | 25.2 µM (inactive) | 17.8 µM (inactive) | 13.3 µM (inactive) | 20.9 µM (inactive) | 16 µM (inactive) | 32.8 µM (inactive) | – | 4.32 µM (inactive) | 27.6 µM (inactive) | 22.6 µM (inactive) | 14.5 µM (inactive) | 24.4 µM (inactive) | – | – | – | – |
| COc1cc(/C=C2\CCc3cc(OC)c(OC)cc3C2=O)cc(OC)c1 | 14.2 µM (inactive) | 12.8 µM (inactive) | 3.75 µM (inactive) | 5.38 µM (inactive) | > 28.6 µM (inactive) | – | 5.3 µM (inactive) | – | 3.51 µM (inactive) | 3.92 µM (inactive) | 8.67 µM (inactive) | 5.96 µM (inactive) | 3.81 µM (inactive) | 3.03 µM (inactive) | 21.3 µM (inactive) | 21.4 µM (inactive) | 8.55 µM (inactive) | 1.99 µM (inactive) | 3.15 µM (inactive) | – |
| COC(=O)c1cc(O)c(O)c(O)c1-c1c(O)c(O)c(O)c(SC[C@H](NC(=O)OCc2ccccc2)C(=O)OCc2ccccc2)c1C(=O)OC | 41.9 µM (inactive) | 17.6 µM (inactive) | 22.3 µM (inactive) | 28.4 µM (inactive) | 30.8 µM (inactive) | – | 24.1 µM (inactive) | – | 15.1 µM (inactive) | 35.3 µM (inactive) | 18.7 µM (inactive) | 19.9 µM (inactive) | 17.3 µM (inactive) | 19.6 µM (inactive) | 20.3 µM (inactive) | 26.5 µM (inactive) | 22.6 µM (inactive) | 11.1 µM (inactive) | 35 µM (inactive) | – |
| S=C(N/N=C(/c1ccccc1)c1ccccn1)Nc1ccc(Cl)cc1 | 0.175 µM (active) | < 0.0171 µM (active) | 0.59 µM (active) | 1.45 µM (inactive) | 3.02 µM (inactive) | – | 1.88 µM (inactive) | – | < 0.01 µM (active) | 0.627 µM (active) | 0.264 µM (active) | 0.455 µM (active) | < 0.0162 µM (active) | < 0.01 µM (active) | 2.06 µM (inactive) | 5.06 µM (inactive) | 0.0476 µM (active) | 2.22 µM (inactive) | 0.195 µM (active) | – |
| CN(C)C(=S)/N=c1\ssc(=S)n1Cc1cccs1 | 3.46 µM (inactive) | 17.5 µM (inactive) | 2.7 µM (inactive) | 2.55 µM (inactive) | 6.05 µM (inactive) | 2.15 µM (inactive) | 6.7 µM (inactive) | – | 2.44 µM (inactive) | 1.93 µM (inactive) | 3.11 µM (inactive) | 2.88 µM (inactive) | 3.15 µM (inactive) | 2.1 µM (inactive) | 1.52 µM (inactive) | 14.6 µM (inactive) | 2.4 µM (inactive) | 0.658 µM (active) | 1.08 µM (active) | 8.89 µM (inactive) |
| CC(C)OP(=O)(OC(C)C)/C(=N/Nc1ccc([N+](=O)[O-])cc1)NCCN/C(=N\Nc1ccc([N+](=O)[O-])cc1)P(=O)(OC(C)C)OC(C)C | – | 3.31 µM (inactive) | 2.15 µM (inactive) | > 100 µM (inactive) | 3.35 µM (inactive) | 3.85 µM (inactive) | 5.4 µM (inactive) | 3.7 µM (inactive) | 3.94 µM (inactive) | – | 3.58 µM (inactive) | 4.92 µM (inactive) | 3.48 µM (inactive) | 3.29 µM (inactive) | 5 µM (inactive) | 7.19 µM (inactive) | – | – | – | – |
| O=C1c2cnccc2Cc2cccc3c2N1c1ccccc1S3 | – | 28.3 µM (inactive) | 18 µM (inactive) | 20.6 µM (inactive) | 30.9 µM (inactive) | 26.4 µM (inactive) | 16.6 µM (inactive) | 22.9 µM (inactive) | 21.1 µM (inactive) | 28.2 µM (inactive) | 2.88 µM (inactive) | 16.8 µM (inactive) | 19 µM (inactive) | 20.8 µM (inactive) | 12.6 µM (inactive) | 21.5 µM (inactive) | – | – | – | – |
| COc1ccc(/C(=N/N=c2\[nH]c3ccccc3n2Cc2ccccc2)C(=O)O)cc1 | 13.7 µM (inactive) | 7.8 µM (inactive) | 8.36 µM (inactive) | 23.7 µM (inactive) | 25.7 µM (inactive) | – | 10 µM (inactive) | – | 3.19 µM (inactive) | 6.81 µM (inactive) | 16.7 µM (inactive) | 28.4 µM (inactive) | 12.7 µM (inactive) | 22.7 µM (inactive) | 18.3 µM (inactive) | 7.76 µM (inactive) | 7.41 µM (inactive) | 21.1 µM (inactive) | 5.19 µM (inactive) | – |
| C/C(=N/NC(=S)Nc1cccc(C)c1)c1ccccn1 | 0.025 µM (active) | < 0.01 µM (active) | 0.331 µM (active) | 1.57 µM (inactive) | 0.977 µM (active) | – | 1.91 µM (inactive) | – | < 0.01 µM (active) | 0.296 µM (active) | < 0.0532 µM (active) | 1.68 µM (inactive) | < 0.01 µM (active) | < 0.01 µM (active) | 2.11 µM (inactive) | 1.98 µM (inactive) | < 0.01 µM (active) | 1.35 µM (inactive) | < 0.01 µM (active) | – |
| Cc1cnc2c(c1)C(=O)C1=C(C2=O)C2OC(=O)CC2OC1(C)C (configuration not stated) | 1.35 µM (inactive) | 0.0776 µM (active) | 0.179 µM (active) | 0.237 µM (active) | 1.16 µM (inactive) | – | 0.248 µM (active) | – | 0.0148 µM (active) | 1.25 µM (inactive) | 0.12 µM (active) | 0.964 µM (active) | 0.0681 µM (active) | 0.0209 µM (active) | 1.69 µM (inactive) | 0.159 µM (active) | 0.16 µM (active) | 0.308 µM (active) | 0.625 µM (active) | – |
| CCOC(=O)N[C@@H]1C2CC(=O)C(O2)[C@@H]1OC (some centres not stated) | > 100 µM (inactive) | > 100 µM (inactive) | > 100 µM (inactive) | > 100 µM (inactive) | > 100 µM (inactive) | – | > 100 µM (inactive) | – | > 100 µM (inactive) | > 100 µM (inactive) | > 100 µM (inactive) | > 100 µM (inactive) | > 100 µM (inactive) | > 100 µM (inactive) | > 100 µM (inactive) | > 100 µM (inactive) | – | – | – | > 100 µM (inactive) |
| Cn1nc(-c2ccccc2)c2c(/C=C/c3ccccc3)onc2c1=O | 43.8 µM (inactive) | > 100 µM (inactive) | 23.8 µM (inactive) | 65.8 µM (inactive) | 67.3 µM (inactive) | 98.4 µM (inactive) | 83.6 µM (inactive) | – | > 100 µM (inactive) | 38.9 µM (inactive) | 69 µM (inactive) | > 100 µM (inactive) | > 100 µM (inactive) | > 100 µM (inactive) | 27 µM (inactive) | – | – | – | – | 25.5 µM (inactive) |
| O=C1NC(=O)C23C(=O)NC(=O)C12C1C=CC3CC1 (configuration not stated) | > 10 µM (inactive) | > 10 µM (inactive) | > 10 µM (inactive) | > 10 µM (inactive) | > 10 µM (inactive) | – | > 10 µM (inactive) | – | > 10 µM (inactive) | > 10 µM (inactive) | > 10 µM (inactive) | > 10 µM (inactive) | > 10 µM (inactive) | > 10 µM (inactive) | > 10 µM (inactive) | > 10 µM (inactive) | > 10 µM (inactive) | > 10 µM (inactive) | > 10 µM (inactive) | – |
| C=C(C)C1(Sc2ccc(OC)cc2)CC1 | 30.5 µM (inactive) | 13.8 µM (inactive) | 51.9 µM (inactive) | 23.2 µM (inactive) | 45.4 µM (inactive) | – | 14.5 µM (inactive) | – | 17 µM (inactive) | 26.9 µM (inactive) | 30.5 µM (inactive) | 21.3 µM (inactive) | 27.2 µM (inactive) | 14.9 µM (inactive) | 21.9 µM (inactive) | 34.9 µM (inactive) | 29.3 µM (inactive) | 7.94 µM (inactive) | 37.4 µM (inactive) | – |
| CC1(C)OCC(C2OC(=O)C(OCc3ccccc3)=C2OCc2ccccc2)O1 (configuration not stated) | 52.6 µM (inactive) | 23 µM (inactive) | 22.4 µM (inactive) | 72.6 µM (inactive) | 55.3 µM (inactive) | – | 36.8 µM (inactive) | – | 22.9 µM (inactive) | 34 µM (inactive) | 45.2 µM (inactive) | 23.1 µM (inactive) | 31.3 µM (inactive) | 27.4 µM (inactive) | 49.9 µM (inactive) | 42.2 µM (inactive) | 21 µM (inactive) | 26.9 µM (inactive) | 35.2 µM (inactive) | – |
| Nc1ccccc1OCCCOc1ccccc1N | > 100 µM (inactive) | > 100 µM (inactive) | > 100 µM (inactive) | > 100 µM (inactive) | > 100 µM (inactive) | – | > 100 µM (inactive) | – | > 100 µM (inactive) | > 100 µM (inactive) | > 100 µM (inactive) | > 100 µM (inactive) | > 100 µM (inactive) | > 100 µM (inactive) | > 100 µM (inactive) | > 100 µM (inactive) | > 100 µM (inactive) | 57.1 µM (inactive) | > 100 µM (inactive) | – |
